According to paper PMC8259862, “Latency, thermal stability, and identification of an inhibitory compound of mirolysin, a secretory protease of the human periodontopathogen Tannerella forsythia” (Journal of Enzyme Inhibition and Medicinal Chemistry, 2021):
pIC50, pKd, pKi: −log10 of the molar value.

Assays:
[1] = molecular target: Arg-specific gingipains, Rgp; set-up: method as in PMID 15361547; details: cited from earlier work
[2] = molecular target: Lys-specific gingipain, Kgp; set-up: method as in PMID 15361547; details: cited from earlier work
[3] = molecular target: T1, mirolysin (Tannerella forsythia, UniProt A0A0F7IPS1); experiment: Screening round II: inhibitory activity of the 21 fragments against mirolysin (FTC-casein); type: biochemical; details: molar ratio 50:1 (compound:enzyme), read-out: reduction of mirolysin activity (screening round II)
T1 sequence (A0A0F7IPS1 entry or part of it): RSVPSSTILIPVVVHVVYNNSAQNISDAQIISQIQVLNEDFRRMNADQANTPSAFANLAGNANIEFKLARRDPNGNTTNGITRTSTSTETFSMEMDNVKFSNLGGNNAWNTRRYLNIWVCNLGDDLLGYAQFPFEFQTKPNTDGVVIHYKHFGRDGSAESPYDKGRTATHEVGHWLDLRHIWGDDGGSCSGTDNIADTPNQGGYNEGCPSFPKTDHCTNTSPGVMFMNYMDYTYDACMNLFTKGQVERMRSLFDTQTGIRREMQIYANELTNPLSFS
Method: (§1) Mirolysin activity was routinely determined in assay buffer (50 mM Tris, 150 mM NaCl, 5 mM CaCl2, 0.02% NaN3, pH 7.5) supplemented with 0.05% Pluronic F-127, employing Azocoll or FTC-caseins as a substrate. Briefly, an Azocoll suspension was added to the sample in Eppendorf tubes and vigorously shaken for 15 min–2 h at 37 °C. Undigested Azocoll was removed by centrifugation (16,100 × g, 5 min, 4 °C), and the absorbance at 410 nm was measured using a Sunrise absorbance microplate reader (Tecan, Männedorf, Switzerland). In the case of FTC-casein, analysed samples were transferred into wells of a black microtiter plate (Nunc, Roskilde, Denmark), and then the FTC-casein solution was added. Proteolytic activity was recorded as an increase in fluorescence (excitation/emission = 485/538 nm) over time using a SpectraMax Gemini EM reader (Molecular Devices, San Jose, CA, USA).
Mirolysin (40 nM) was mixed with each of the 21 compounds (2 µM) (Supplementary Table 1) in assay buffer (50 mM Tris, 150 mM NaCl, 5 mM CaCl2, 0.02% NaN3, 0.05% Pluronic F-127, pH 7.5) in a 96-well plate (total volume, 100 µl). After 15 min at 37 °C, 100 µl of the substrate solution FTC-casein (100 µg/ml) was added, and substrate hydrolysis was monitored. The percentage of inhibition was determined relative to the sample containing the enzyme without any compound added (control sample). […]

[4] = molecular target: T1, mirolysin; experiment: 2D NMR titration of 15N-labelled mirolysin (KD); type: binding; details: KD by NMR titration, estimated from peaks in fast exchange, 298 K
Method: The custom-selected Maybridge diversity library of 1500 fragments was screened using the saturation transfer difference (STD) ligand-based approach, with fragments pooled into cocktails of five fragments each. STD spectra were recorded at a concentration of 10 µM mirolysin, with the final concentration of each fragment in the sample at 1 mM. D6-DMSO was used for the lock signal. STD experiments used alternating on- and off-resonance saturation (2s saturation, Gaussian pulse, +0.6 ppm, −5 ppm, 128 scans) with water suppression using a double-pulsed-field gradient spin-echo (DPFGSE) watergate W5 double-echo sequence[32]^,[33]. Spectra were compared with a reference containing d6-DMSO only. […] Hits identified using STD–NMR, based on the intensity ratio of ligand signals between the STD experiment and a 1D reference spectrum, were validated using ^1H,^15N heteronuclear single quantum coherence (HSQC) experiments with water flip back and watergate water suppression[34]^,[35], with spectra assessed for chemical shift perturbations (CSPs) relative to a control containing d6-DMSO. […] Spectra were recorded with 40 scans, and a ^1H spectral width of 9615.4 Hz and a ^15N spectral width of 2128.9 Hz, with 2048 and 256 complex points, respectively. All experiments were recorded at 298 K using a Bruker Avance 600 MHz spectrometer (^1H frequency, 600 MHz) equipped with a 5 mm QCI cryoprobe.

[5] = molecular target: T1, mirolysin; experiment: Determination of KD by microscale thermophoresis; type: binding
Method: The Monolith NT.115 instrument (NanoTemper) was used to analyse binding interactions between mirolysin and compounds 9, 10, and 21. Lysine residues of mirolysin were fluorescently labelled with the Monolith NT Protein Labelling Kit RED-NHS-Red dye (NanoTemper), strictly according to the manufacturer’s instruction (a 7 M excess of dye was used). Compounds at concentrations ranging from 1.5 to 25 000 nM were incubated for 5 min at 20 °C with 20 nM mirolysin. Experiments were performed in 0.1 M Tris, 0.15 M NaCl, 5 mM CaCl2, 0.05% Pluronic-F127, 0.02% NaN3, pH 7.5. Samples were loaded into Monolith NT.115 Standard Treated glass capillaries (NanoTemper), and an initial fluorescence measurement followed by a thermophoresis measurement was carried out using 80% LED power and high microscale thermophoresis (MST) power. KD values were calculated using MO. Affinity Analysis software (NanoTemper). Each experiment was performed in triplicate.

[6] = molecular target: T1, mirolysin; experiment: Dose-dependent inhibition of mirolysin (Azocoll); type: biochemical
Method: as §1
Mirolysin (0.1 µM) was incubated with increasing concentrations of compounds (0–100 µM) in 50 µl assay buffer (50 mM Tris, 0.15 M NaCl, 5 mM CaCl2, 0.02% NaN3, pH 7.5) for 15 min at 37 °C, before 200 µl Azocoll suspension (15 mg/ml in assay buffer) was added.

[7] = molecular target: T1, mirolysin; experiment: Determination of inhibition constant (Ki) and mode of inhibition (FTC-casein); type: biochemical; details: for mode of inhibition: Lineweaver-Burk plot
Method: After 15 min of incubation at 37 °C, 100 µl fluorogenic protein substrate FTC-casein was added at different concentrations (5–120 µg/ml), and the residual proteolytic activity was recorded. The mode of inhibition of target proteases by the compounds was determined graphically using the Lineweaver–Burk plot using Equation (2): (2) 1/V=Km/Vmax×1/[S]+1/Vmax where V is the reaction velocity, Vmax is the maximum V, Km is the Michaelis–Menten constant, and [S] is the substrate concentration. The Ki was determined using a macro for competitive inhibition from GraphPad Prism software (La Jolla, CA, USA) and Equation (3): (3) V=Vmax×[S]/Kmobs+[S]; Kmobs=Km×(1+[I]/Ki) where Kmobs is the Michaelis–Menten constant in the presence of inhibitor, and [I] is the inhibitor concentration.

[8] = molecular target: T1, mirolysin; experiment: Screening of compound specificity: mirolysin; type: biochemical; details: read-out: decrease in mirolysin activity
Method: (§2) The residual proteolytic activity was determined employing Azocoll (12 mg/ml) or, for gingipains only, FTC-casein (50 µg/ml), as described above.

[9] = test system: mirolase; experiment: Screening of compound specificity: mirolase; type: biochemical, Tannerella forsythia; details: 100 nM protease, 100 M excess of compound, Azocoll
Method: as §2

[10] = molecular target: T2, karilysin (Tannerella forsythia, UniProt D0EM77); experiment: Screening of compound specificity: karilysin; type: biochemical; details: 100 nM protease, 100 M excess of compound, Azocoll
T2 construct: made in house
T2 sequence (D0EM77 35-472): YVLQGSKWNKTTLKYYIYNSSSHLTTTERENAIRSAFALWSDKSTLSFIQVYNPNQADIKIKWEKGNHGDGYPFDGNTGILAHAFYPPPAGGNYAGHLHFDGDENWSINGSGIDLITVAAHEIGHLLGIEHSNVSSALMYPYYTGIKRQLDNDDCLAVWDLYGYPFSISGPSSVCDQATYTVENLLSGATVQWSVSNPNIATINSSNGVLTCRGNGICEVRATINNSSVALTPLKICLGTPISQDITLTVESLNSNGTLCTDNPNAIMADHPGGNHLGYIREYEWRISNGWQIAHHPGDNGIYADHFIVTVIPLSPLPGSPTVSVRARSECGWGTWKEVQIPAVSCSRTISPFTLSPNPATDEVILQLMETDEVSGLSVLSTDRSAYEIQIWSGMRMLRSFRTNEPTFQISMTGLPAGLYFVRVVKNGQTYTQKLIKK
Method: as §2

[11] = test system: forsilysin; experiment: Screening of compound specificity: forsilysin; type: biochemical, Tannerella forsythia; details: 100 nM protease, 100 M excess of compound, Azocoll
Method: as §2

[12] = molecular target: T3, RgpB (Porphyromonas gingivalis, UniProt P95493); experiment: Screening of compound specificity: RgpB; type: biochemical; details: 100 nM protease, 100 M excess of compound, FTC-casein
T3 construct: His; made in house
T3 sequence (P95493 230-736): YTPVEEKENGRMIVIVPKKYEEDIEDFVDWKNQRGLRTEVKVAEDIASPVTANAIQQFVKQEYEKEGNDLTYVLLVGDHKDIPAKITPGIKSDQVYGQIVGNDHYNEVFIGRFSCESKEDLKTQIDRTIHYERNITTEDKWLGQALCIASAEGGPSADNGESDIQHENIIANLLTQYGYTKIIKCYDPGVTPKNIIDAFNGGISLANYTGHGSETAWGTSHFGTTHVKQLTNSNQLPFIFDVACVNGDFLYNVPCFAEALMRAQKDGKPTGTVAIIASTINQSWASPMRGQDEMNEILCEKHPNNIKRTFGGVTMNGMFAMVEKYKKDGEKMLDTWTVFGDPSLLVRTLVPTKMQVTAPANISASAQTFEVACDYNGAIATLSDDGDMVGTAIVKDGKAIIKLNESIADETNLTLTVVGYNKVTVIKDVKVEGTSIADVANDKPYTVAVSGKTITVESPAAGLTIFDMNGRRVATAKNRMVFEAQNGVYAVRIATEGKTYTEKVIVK
Method: as §2

[13] = molecular target: T4, Kgp (Porphyromonas gingivalis, UniProt B2RLK2); experiment: Screening of compound specificity: Kgp; type: biochemical; details: 100 nM protease, 100 M excess of compound, FTC-casein
T4 construct: made in house
Method: as §2

[14] = molecular target: T5, human thrombin (Homo sapiens, UniProt P00734); experiment: Screening of compound specificity: thrombin; type: biochemical; details: 100 nM protease, 100 M excess of compound, Azocoll
T5 construct: purchased Merck Sigma-Aldrich
Method: as §2

[15] = molecular target: T6, human plasmin (Homo sapiens, UniProt P00747); experiment: Screening of compound specificity: plasmin; type: biochemical; details: 100 nM protease, 100 M excess of compound, Azocoll
T6 construct: purchased Merck Sigma-Aldrich
T6 sequence (P00747 581-810 limits assumed): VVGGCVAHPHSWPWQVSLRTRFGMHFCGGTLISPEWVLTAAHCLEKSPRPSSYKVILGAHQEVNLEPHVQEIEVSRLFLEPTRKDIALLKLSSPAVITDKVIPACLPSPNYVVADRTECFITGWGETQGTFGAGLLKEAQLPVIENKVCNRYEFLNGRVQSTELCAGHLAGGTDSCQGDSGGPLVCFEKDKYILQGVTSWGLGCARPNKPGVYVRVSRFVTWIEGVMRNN
T6 sequence (P00747 97-580 partner limits assumed): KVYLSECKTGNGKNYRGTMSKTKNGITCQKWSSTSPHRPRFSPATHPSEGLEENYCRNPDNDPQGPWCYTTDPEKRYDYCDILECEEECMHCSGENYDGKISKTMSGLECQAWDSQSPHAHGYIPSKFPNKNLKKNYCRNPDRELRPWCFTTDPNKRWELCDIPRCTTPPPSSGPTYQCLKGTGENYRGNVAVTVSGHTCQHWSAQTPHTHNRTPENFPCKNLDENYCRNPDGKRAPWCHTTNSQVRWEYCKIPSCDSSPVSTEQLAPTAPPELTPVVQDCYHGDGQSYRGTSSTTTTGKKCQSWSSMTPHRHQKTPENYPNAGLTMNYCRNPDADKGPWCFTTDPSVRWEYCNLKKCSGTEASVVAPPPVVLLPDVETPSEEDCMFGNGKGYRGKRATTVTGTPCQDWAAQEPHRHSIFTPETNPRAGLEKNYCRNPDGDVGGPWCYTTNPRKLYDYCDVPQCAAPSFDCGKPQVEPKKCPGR
Method: as §2

[16] = molecular target: T7, bovine trypsin (Bos taurus, UniProt P00760); experiment: Screening of compound specificity: trypsin; type: biochemical; details: 100 nM protease, 100 M excess of compound, Azocoll
T7 construct: purchased Merck Sigma-Aldrich
T7 sequence (P00760 24-246): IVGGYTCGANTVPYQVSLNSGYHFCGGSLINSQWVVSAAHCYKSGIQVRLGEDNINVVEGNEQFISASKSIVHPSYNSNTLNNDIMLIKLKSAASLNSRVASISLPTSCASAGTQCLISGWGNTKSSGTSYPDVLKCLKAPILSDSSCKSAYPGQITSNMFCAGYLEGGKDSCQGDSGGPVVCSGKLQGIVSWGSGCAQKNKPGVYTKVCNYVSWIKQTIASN
Method: as §2

[17] = test system: promirolysin (proM^wt); experiment: Effect of compounds on promirolysin autoprocessing (activation in cis); type: biochemical, Tannerella forsythia
Method: ProM^wt (70 µM) was activated at 37 °C in 5 mM Tris, 50 mM NaCl, 0.02% NaN3, pH 8.0, alone or in the presence of a […] excess of different compounds. At specific time points, aliquots were withdrawn and analysed by SDS–PAGE (10% gels; 4 µl sample, preincubated with 1:1 (vol:vol) of 20 mM 1,10-phenanthroline for 5 min at room temperature), and measured in a proteolytic activity assay, employing FTC-casein (25 µg/ml) as a substrate.

[18] = […] excess of compound, FTC-casein

Row | SMILES | inhibition at 2 µM [3] [%] | pKd [4] | pKd [5] | pIC50 [6] | pKi [7] | mode of inhibition [7] | inhibition at 10 µM [8] [%] | effect on mirolase activity [9] | effect on karilysin activity [10] | effect on forsilysin activity [11] | effect on RgpB activity [12] | effect on Kgp activity [13] | effect on thrombin activity [14] | effect on plasmin activity [15] | effect on trypsin activity [16] | other results
1 | CN(C)C(=O)[C@H](CCCCN)NC(=O)C(=O)[C@H](CCCN=C(N)N)NC(=O)[C@H](CCCCN)NC(=O)OCc1ccccc1 [Kyt-1] | – | – | – | – | – | – | – | – | – | – | – | – | – | – | – | pKi [1]: 9.89
2 | CN(NC(=O)CC[C@H](NC(=O)OCc1ccccc1)C(=O)N[C@@H](CCCCN)C(=O)C(=O)NCc1ccccc1)c1ccccc1 [Kyt-36] | – | – | – | – | – | – | – | – | – | – | – | – | – | – | – | pKi [2]: 10.12
3 | NCc1cccc(-c2ccco2)c1 [cpd 10] | 10 to 20 | 3.56 | 5.01 | 5.18 | 4.66 | reversible competitive inhibitors | 20 | almost completely unaffected | almost completely unaffected | almost completely unaffected | almost completely unaffected | almost completely unaffected | almost completely unaffected | almost completely unaffected | almost completely unaffected | –
4 | NCc1cccc2nsnc12 [cpd 9] | 10 to 20 | 4.14 | 5.96 | 5.64 | 5.49 | reversible competitive inhibitors | 50 | almost completely unaffected | almost completely unaffected | almost completely unaffected | almost completely unaffected | almost completely unaffected | almost completely unaffected | almost completely unaffected | almost completely unaffected | effect on mirolase activity ([9]; listed as Cpd 9): did not affect; effect on karilysin activity ([10]; listed as Cpd 9): did not affect; effect on forsilysin activity ([11]; listed as Cpd 9): did not affect; effect on RgpB activity ([12]; listed as Cpd 9): did not affect; effect on Kgp activity ([13]; listed as Cpd 9): did not affect; effect on thrombin activity ([14]; listed as Cpd 9): did not affect; effect on plasmin activity ([15]; listed as Cpd 9): did not affect; effect on trypsin activity ([16]; listed as Cpd 9): did not affect; effect on proteolytic activity in aliquots during proM^wt activation [17, 18]: significantly decreased; reduction of mirolysin activity after 216 h of proM^wt activation [17, 18]: 30%; effect on proM^wt maturation (35 kDa zymogen to 31 kDa form, SDS-PAGE) ([17]; proM^wt 70 µM, 50 M excess of compound, 37 °C, 216 h): significantly slowed; time to complete proM^wt maturation ([17]; proM^wt 70 µM, 50 M excess of compound, 37 °C, SDS-PAGE): > 216 h
